Entries after “also recorded” stand apart in the source; their conditions may differ.
How the values were obtained:
MAC bacteria = type: cell-based, Mycobacterium avium complex; conditions: 2×MIC; starting inoculum 5.5 log10 CFU/ml
Description: In vitro, efficacy was studied in static time-kill kinetics assays (at 2×minimum inhibitory concentration [MIC]), intended to mirror a desired peak serum concentration for all three antibiotics using an established assay. All experiments were performed with a starting inoculum of 5.5 log10 CFU/ml MAC bacteria, higher than the bacterial load expected in the airway secretions of patients with mild nodular-bronchiectatic disease due to MAC.

[1] = system: intracellular MAC in THP-1 monocytes; assay: Hollow fiber system model of MAC (HFS-MAC): microbial kill; type: cell-based, Mycobacterium avium complex; conditions: HF experiments
Description: The anti-mycobacterial effects of CLR, CFZ, and RFB was evaluated in the hollow fiber system model of MAC (HFS-MAC), which recapitulates the intrapulmonary concentrations of these antibiotics. The HFS-MAC allows for an assessment of the contribution of individual drug components in terms of anti-mycobacterial effects and enables exploration of potential synergy, additivity, or antagonism of different doses of drugs and combination regimens on the log-phase growth of intracellular MAC, for both microbial kill and resistance suppression.
A two-part investigation was conducted to assess the contribution of components of various FDC products comprising CLR, CFZ, and RFB in terms of depth and rate of MAC kill and suppression of the emergence of resistance. The anti-MAC activity of each antibiotic component was evaluated as one-drug alone; as two-drug combinations and the three-drug combination. For each combination (singlet, doublet or triplet), the drug concentrations were sampled from the HF fluid bathing MAC-infected cells. […] Anti-MAC activity was evaluated by kill slopes defined as the kill rate constant (and the half-life of kill [reciprocal of the kill rate constant]) as well as the maximum kill, defined as the maximum reduction in MAC CFUs and compared between the different antibiotic combinations.
MAC was grown into log-phase for 4 days, parallel with cultivation of THP-1 monocytes. The THP-1 cells were then infected with MAC overnight at a multiplicity of infection of 1:1. The THP-1 cells were washed to remove extracellular bacteria, and 20 mL of 1×10^6 (6.0 log10) cells/mL were inoculated into each HFS-MAC on Study Day 0. The peripheral compartment is the abluminal hollow fibers space that is also enclosed by the plastic, while the intraluminal space and flow path form the central compartment. […]

MAC [2] = assay: MIC of the MAC strains used in the HFS-MAC studies; type: cell-based, Mycobacterium avium complex; conditions: Mycobacterium avium
Description: The MAC strain used in the HFS-MAC studies was ATCC strain 700898. The study center also had 5 well-characterized clinical strains that have undergone whole-genome sequencing and habituation to the HFS-MAC. Stock cultures of MAC were stored at −80° C. in Middlebrook 7H9 broth with 10% OADC and 10% glycerol. THP-1 monocytes were stored in liquid nitrogen and have been habituated for the HFS-MAC growth conditions.

[3] = 7-day mouse tolerability and PK study; conditions: for Cavg (clarithromycin) / Cavg (rifabutin): AUCtlast/24 h; for AUC(0-t) / Cmax / Tmax: female, C57BL/6, mouse, po
Description: Sixty (60) female mice were tested, 12 per treatment groups: […]

[4] = epithelial lining fluid to total plasma/serum; cited from earlier work
M. avium 104 biofilm = assay: In vitro biofilm model of infection; type: cell-based, Mycobacterium avium subsp. hominissuis; conditions: mean ± SD; CLR 1.9-4.3 μg/mL, RFB 0.04 μg/mL, CFZ 0.0005 μg/mL
M. avium = assay: MIC of antibiotics by broth microdilution, M. avium strains of Examples 3 and 4; type: cell-based, Mycobacterium avium subsp. hominissuis; conditions: for minimum inhibitory concentrations (MICs) used for antibiotic plates: 7H10 agar plates for tissue CFU counts
Description: Susceptibility testing was conducted using broth microdilution single and twofold dilutions as described in the literature. Suspensions were prepared by swabs on a growth plate with a sterile cotton swab, or were prepared in broth culture. The growth was transferred to a 4.5 mL of phosphate buffer solution (PBS) until the turbidity matched the density of a 0.5 McFarland standard. Suspensions were then vigorously mixed on a vortex mixer for 15 to 20 seconds. The final inoculum was prepared to a bacterial density of 10^5. The tube was inverted 8-10 times to mix the suspension.
(§1) Following both the four-week and eight-week treatment period, mice were sacrificed, and lungs and spleens were harvested for CFU counts in each tissue and compared to CFUs recovered in the baseline and vehicle-treated groups. Tissue samples were plated with and without antibiotic on 7H10 agar. Antibiotic plates were made with minimum inhibitory concentrations (MICs) of 8 μg/ml for clarithromycin, and 0.25, μg/ml for both rifabutin (RFB) and clofazimine (CFZ). Plates were made for each of clarithromycin (CLR) alone, clarithromycin plus either rifabutin (CLR+RFB) or clofazimine (CLR+CFZ) and the three-drug combination (CLR+RFB+CFZ). All plates were incubated in a microbiological incubator at 37° C. for 14 days.

M. avium strain 104 = assay: Mouse lung infection model, clarithromycin sensitive strain; type: in vivo, Mycobacterium avium subsp. hominissuis; conditions: for reduction in CFU relative to vehicle: 50 mg/kg
Description: as §1

MAC [5] = assay: Lung histopathology of mice infected with MAC and treated for four and eight weeks; type: in vivo, Mycobacterium avium complex; conditions: 32 sections per group
Description: Lung and Spleen Histopathology of Mice Infected with MAC and Treated with FDC Components Alone and in Combination for Four and Eight Weeks of Treatment
Each of the experimental group had eight cut examined from each lung (8×2 lungs=16×2 mice=32 sections). Lungs were normal and not showing any pathology at pre-infection.

NTM = conditions: mouse models of systemic and lung infection; preclinical literature; cited from earlier work
[6] = ATCC700898, MAC (ATCC 700898), laboratory strain

SMILES: CC[C@H]1OC(=O)[C@H](C)[C@@H](O[C@H]2C[C@@](C)(OC)[C@@H](O)[C@H](C)O2)[C@H](C)[C@@H](O[C@@H]2O[C@H](C)C[C@H](N(C)C)[C@H]2O)[C@](C)(OC)C[C@@H](C)C(=O)[C@H](C)[C@@H](O)[C@]1(C)O [Clarithromycin, clarithromycin]
- activity as single drugs (MAC bacteria): bacteriostatic activity
- effect on CFUs / MAC killing, summary [1]: reductions in colony forming units
- MIC (MAC [2]; [6]): 0.25 µg/mL
- MIC (MAC [2]; Clinical strain #1): 0.125 µg/mL
- MIC (MAC [2]; Clinical strain #2): 0.5 µg/mL
- MIC (MAC [2]; Clinical strain #3): 32 µg/mL
- MIC (MAC [2]; Clinical strain #4): 0.25 µg/mL
- MIC (MAC [2]; Clinical strain #5): 0.125 µg/mL
- Cavg (clarithromycin) ([3]; Day 7, CLR 100 mg/kg alone): 729 ng/mL
- Cavg (clarithromycin) ([3]; Day 7, CLR 200 mg/kg alone): 1,425 ng/mL
- Cavg (clarithromycin) ([3]; Day 7, CLR 200 mg/kg with RFB 60 mg/kg and CFZ 30 mg/kg): 2,704 ng/mL
- AUC(0-t) ([3]; plasma, 100 mg/kg, AUCtlast (clarithromycin), Day 1, CLR 100 mg/kg alone, oral, mouse plasma): 11100 ng·h/mL
- AUC(0-t) ([3]; plasma, 100 mg/kg, AUCtlast (clarithromycin), Day 7, CLR 100 mg/kg alone, oral once daily, mouse plasma): 17500 ng·h/mL
- Cmax ([3]; plasma, 100 mg/kg, Cmax (clarithromycin), Day 1, CLR 100 mg/kg alone, oral, mouse plasma): 3400 ng/mL
- Cmax ([3]; plasma, 100 mg/kg, Cmax (clarithromycin), Day 7, CLR 100 mg/kg alone, oral once daily, mouse plasma): 6130 ng/mL
- Tmax ([3]; plasma, 100 mg/kg, tmax (clarithromycin), Day 1, CLR 100 mg/kg alone, oral, mouse plasma): 1 h
- Tmax ([3]; plasma, 100 mg/kg, tmax (clarithromycin), Day 7, CLR 100 mg/kg alone, oral once daily, mouse plasma): 1 h
- AUC(0-t) ([3]; plasma, 200 mg/kg, AUCtlast (clarithromycin), Day 1, CLR 200 mg/kg alone, oral, mouse plasma): 36200 ng·h/mL
- AUC(0-t) ([3]; plasma, 200 mg/kg, AUCtlast (clarithromycin), Day 1, CLR 200 mg/kg with RFB 60 mg/kg and CFZ 30 mg/kg, oral, mouse plasma): 44200 ng·h/mL
- AUC(0-t) ([3]; plasma, 200 mg/kg, AUCtlast (clarithromycin), Day 7, CLR 200 mg/kg alone, oral once daily, mouse plasma): 34200 ng·h/mL
- AUC(0-t) ([3]; plasma, 200 mg/kg, AUCtlast (clarithromycin), Day 7, CLR 200 mg/kg with RFB 60 mg/kg and CFZ 30 mg/kg, oral once daily, mouse plasma): 64900 ng·h/mL
- Cmax ([3]; plasma, 200 mg/kg, Cmax (clarithromycin), Day 1, CLR 200 mg/kg alone, oral, mouse plasma): 9110 ng/mL
- Cmax ([3]; plasma, 200 mg/kg, Cmax (clarithromycin), Day 1, CLR 200 mg/kg with RFB 60 mg/kg and CFZ 30 mg/kg, oral, mouse plasma): 8370 ng/mL
- Cmax ([3]; plasma, 200 mg/kg, Cmax (clarithromycin), Day 7, CLR 200 mg/kg alone, oral once daily, mouse plasma): 7430 ng/mL
- Cmax ([3]; plasma, 200 mg/kg, Cmax (clarithromycin), Day 7, CLR 200 mg/kg with RFB 60 mg/kg and CFZ 30 mg/kg, oral once daily, mouse plasma): 10100 ng/mL
- Tmax ([3]; plasma, 200 mg/kg, tmax (clarithromycin), Day 1, CLR 200 mg/kg alone, oral, mouse plasma): 1 h
- Tmax ([3]; plasma, 200 mg/kg, tmax (clarithromycin), Day 1, CLR 200 mg/kg with RFB 60 mg/kg and CFZ 30 mg/kg, oral, mouse plasma): 1 h
- Tmax ([3]; plasma, 200 mg/kg, tmax (clarithromycin), Day 7, CLR 200 mg/kg alone, oral once daily, mouse plasma): 1 h
- Tmax ([3]; plasma, 200 mg/kg, tmax (clarithromycin), Day 7, CLR 200 mg/kg with RFB 60 mg/kg and CFZ 30 mg/kg, oral once daily, mouse plasma): 1 h
- ELF:plasma ratio [4]: 3.4-7.8
- Colony Forming Unit Concentration, Four Days (M. avium 104 biofilm): 1.35 ± 0.3 × 10^7 CFU/mL
- Colony Forming Unit Concentration, Seven Days (M. avium 104 biofilm): 1.07 ± 0.3 × 10^7 CFU/mL
- minimum inhibitory concentrations (MICs) used for antibiotic plates (M. avium): 8 µg/mL
- MIC (M. avium; Mycobacterium avium, clarithromycin resistant sub-subpopulation, 23 S RNA gene mutation): > 128 µg/mL
- reduction in CFU relative to vehicle (M. avium strain 104; after eight weeks of treatment): ~2 log unit
- reduction in CFU relative to vehicle (M. avium strain 104; after four weeks of treatment): approximately 1 log unit
- CFUs resistant to clarithromycin in one animal (M. avium strain 104; clarithromycin monotherapy treatment): 200 CFUs
- Lung Histopathology Findings (MAC [5]): Diffuse congestion; bacteria in granulomas
- Effective Dose (NTM): 50 to 100 mg/kg/day

SMILES: CO[C@H]1/C=C/O[C@@]2(C)Oc3c(C)c(O)c4c(c3C2=O)C2=NC3(CCN(CC(C)C)CC3)NC2=C(NC(=O)/C(C)=C\C=C\[C@H](C)[C@H](O)[C@@H](C)[C@@H](O)[C@@H](C)[C@H](OC(C)=O)[C@@H]1C)C4=O [Rifabutin, rifabutin]
- activity as single drugs (MAC bacteria): bacteriostatic activity
- effect on CFUs / MAC killing, summary [1]: CFU counts increased
- MIC (MAC [2]; [6]): 0.0625 µg/mL
- MIC (MAC [2]; Clinical strain #1): 0.125 µg/mL
- MIC (MAC [2]; Clinical strain #2): 0.125 µg/mL
- MIC (MAC [2]; Clinical strain #3): 0.125 µg/mL
- MIC (MAC [2]; Clinical strain #4): 2 µg/mL
- MIC (MAC [2]; Clinical strain #5): 0.125 µg/mL
- Cavg (rifabutin) ([3]; Day 7, RFB 20 mg/kg alone): 1,117 ng/mL
- Cavg (rifabutin) ([3]; Day 7, RFB 60 mg/kg alone): 2,558 ng/mL
- Cavg (rifabutin) ([3]; Day 7, RFB 60 mg/kg with CLR 200 mg/kg and CFZ 30 mg/kg): 4,541 ng/mL
- Tmax ([3]; in vivo, 20 mg/kg): 1 h
- AUC(0-t) ([3]; in vivo, 20 mg/kg, AUCtlast (rifabutin), Day 1, RFB 20 mg/kg alone, oral, mouse plasma): 22100 ng·h/mL
- AUC(0-t) ([3]; in vivo, 20 mg/kg, AUCtlast (rifabutin), Day 7, RFB 20 mg/kg alone, oral once daily, mouse plasma): 26800 ng·h/mL
- Cmax ([3]; in vivo, 20 mg/kg, Cmax (rifabutin), Day 1, RFB 20 mg/kg alone, oral, mouse plasma): 2310 ng/mL
- Cmax ([3]; in vivo, 20 mg/kg, Cmax (rifabutin), Day 7, RFB 20 mg/kg alone, oral once daily, mouse plasma): 3140 ng/mL
- Tmax ([3]; in vivo, 60 mg/kg): 1 h
- AUC(0-t) ([3]; in vivo, 60 mg/kg, AUCtlast (rifabutin), Day 1, RFB 60 mg/kg alone, oral, mouse plasma): 60200 ng·h/mL
- AUC(0-t) ([3]; in vivo, 60 mg/kg, AUCtlast (rifabutin), Day 1, RFB 60 mg/kg with CLR 200 mg/kg and CFZ 30 mg/kg, oral, mouse plasma): 60400 ng·h/mL
- AUC(0-t) ([3]; in vivo, 60 mg/kg, AUCtlast (rifabutin), Day 7, RFB 60 mg/kg alone, oral once daily, mouse plasma): 61400 ng·h/mL
- AUC(0-t) ([3]; in vivo, 60 mg/kg, AUCtlast (rifabutin), Day 7, RFB 60 mg/kg with CLR 200 mg/kg and CFZ 30 mg/kg, oral once daily, mouse plasma): 109000 ng·h/mL
- Cmax ([3]; in vivo, 60 mg/kg, Cmax (rifabutin), Day 1, RFB 60 mg/kg alone, oral, mouse plasma): 5650 ng/mL
- Cmax ([3]; in vivo, 60 mg/kg, Cmax (rifabutin), Day 1, RFB 60 mg/kg with CLR 200 mg/kg and CFZ 30 mg/kg, oral, mouse plasma): 5300 ng/mL
- Cmax ([3]; in vivo, 60 mg/kg, Cmax (rifabutin), Day 7, RFB 60 mg/kg alone, oral once daily, mouse plasma): 5760 ng/mL
- Cmax ([3]; in vivo, 60 mg/kg, Cmax (rifabutin), Day 7, RFB 60 mg/kg with CLR 200 mg/kg and CFZ 30 mg/kg, oral once daily, mouse plasma): 5720 ng/mL
- Colony Forming Unit Concentration, Four Days (M. avium 104 biofilm): 1.41 ± 0.5 × 10^7 CFU/mL
- Colony Forming Unit Concentration, Seven Days (M. avium 104 biofilm): 1.64 ± 0.3 × 10^7 CFU/mL
- minimum inhibitory concentrations (MICs) used for antibiotic plates (M. avium): 0.25 µg/mL
- Lung Histopathology Findings (MAC [5]): Diffuse congestion; also recorded: Infiltrates of lymphocytes are also observed in multiple locations
- Effective Dose (NTM): 10 mg/kg/day

SMILES: CO[C@H]1/C=C/O[C@@]2(C)Oc3c(C)c(O)c4c(O)c(c(/C=N/N5CCN(C)CC5)c(O)c4c3C2=O)NC(=O)/C(C)=C\C=C\[C@H](C)[C@H](O)[C@@H](C)[C@@H](O)[C@@H](C)[C@H](OC(C)=O)[C@@H]1C [rifampin]
- ELF:plasma ratio [4]: approximately 0.34
